Results: the supplement of paper PMC8671470

Columns and labels:
Conditions in all cases: 72 h
[1] = tested on: MV4-11
Summary of the method: (§1)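 For the IC50, dose–response curves were fitted with a log-logistic model. The data came from fifteen myeloid leukaemia cell lines grown in RPMI 1640 at densities in the linear growth range and incubated in 384-well plates for 72 h at 37 °C under 5% CO2. Doses were five tenfold steps from 1 to 10,000 nM in duplicate, and luminescent ATP viability was normalised to vehicle and to a positive control at 10 µM before four-parameter fitting.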

[2] = tested on: K-562
Summary of the method: as §1

[3] = tested on: Mono-Mac-6
Summary of the method: as §1

[4] = tested on: KCL-22
Summary of the method: as §1

[5] = tested on: ML-2
Summary of the method: as §1

[6] = tested on: KG-1
Summary of the method: as §1

[7] = tested on: LAMA-84
Summary of the method: as §1

[8] = tested on: MOLM-13
Summary of the method: as §1

[9] = tested on: KU-812
Summary of the method: as §1

[10] = tested on: HL-60
Summary of the method: as §1

[11] = tested on: THP-1
Summary of the method: as §1

[12] = tested on: SHI-1
Summary of the method: as §1

[13] = tested on: HEL
Summary of the method: as §1

[14] = tested on: NOMO-1
Summary of the method: as §1

[15] = tested on: BV-173
Summary of the method: as §1

[16] = tested on: MV4-11; assay: cell viability (% survival relative to DMSO control, bortezomib = 0%); higher = less cytotoxic
Summary of the method: (§2)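 Percent survival is reported as the mean of duplicate wells. Cells from 10 AML and 5 CML lines were plated in 384-well plates containing compounds at 1, 10, 100, 1000 or 10000 nM and kept for 72 h at 37 °C in 5% CO2. Readout used CellTiter-Glo luminescence, scaled so that vehicle equals 100% and a 10 µM positive control equals 0%.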

[17] = tested on: K-562; assay: as above
Summary of the method: as §2

[18] = tested on: Mono-Mac-6; assay: as above
Summary of the method: as §2

[19] = tested on: KCL-22; assay: as above
Summary of the method: as §2

[20] = tested on: ML-2; assay: as above
Summary of the method: as §2

[21] = tested on: KG-1; assay: as above
Summary of the method: as §2

[22] = tested on: LAMA-84; assay: as above
Summary of the method: as §2

[23] = tested on: MOLM-13; assay: as above
Summary of the method: as §2

[24] = tested on: KU-812; assay: as above
Summary of the method: as §2

[25] = tested on: HL-60; assay: as above
Summary of the method: as §2

[26] = tested on: THP-1; assay: as above
Summary of the method: as §2

[27] = tested on: SHI-1; assay: as above
Summary of the method: as §2

[28] = tested on: HEL; assay: as above
Summary of the method: as §2

[29] = tested on: NOMO-1; assay: as above
Summary of the method: as §2

[30] = tested on: BV-173; assay: as above
Summary of the method: as §2

CC(C)c1ccc2c(c1)c(SC(C)(C)C)c(CC(C)(C)C(=O)O)n2Cc1ccc(Cl)cc1 [MK-886]
Conditions | IC50 (cell viability) [µM]
[1] | > 10
[2] | > 10
[3] | > 10
[4] | 4.26
[5] | > 10
[6] | > 10
[7] | > 10
[8] | > 10
[9] | > 10
[10] | > 10
[11] | > 10
[12] | > 10
[13] | > 10
[14] | > 10
[15] | > 10

cell viability [%]
Conditions | 1 nM | 10 nM | 100 nM | 1000 nM | 10000 nM
[16] | 107 | 109 | 96.9 | 94.5 | 96.5
[17] | 109 | 97 | 101 | 100 | 106
[18] | 111 | 109 | 91.5 | 101 | 108
[19] | 108 | 110 | 105 | 89.7 | 39.1
[20] | 132 | 107 | 95.3 | 95.8 | 67.8
[21] | 111 | 102 | 89.4 | 93.8 | 91.5
[22] | 96.6 | 101 | 97.2 | 100 | 115
[23] | 89 | 103 | 88.9 | 85.3 | 88.4
[24] | 109 | 97.3 | 94.1 | 94.9 | 91.5
[25] | 108 | 103 | 94.8 | 93.7 | 124
[26] | 96.6 | 101 | 98.2 | 96.8 | 108
[27] | 108 | 110 | 104 | 93.2 | 98.3
[28] | 110 | 112 | 99.2 | 95.3 | 82.7
[29] | 120 | 110 | 106 | 107 | 97.5
[30] | 121 | 89.6 | 114 | 103 | 94.9
